From patent US9271978B2 (Zenith Epigenetics Corp., priority 2012, dated 2016) come the findings set out here.

For experiment [1], the target named is T1, Brd4 bromodomain 1 (BRD4(1)) (Homo sapiens, UniProt O60885).
T1 construct: Illustrative results with the first bromodomain of Brd4; made in house; host or cells: E. coli BL21 (DE3)
The experiment in a line: Inhibition of tetra-acetylated histone H4 binding to Brd4 bromodomain 1 (TR-FRET). Also noted: key: Active: Compounds with an IC50 value less than 30 μM were deemed to be active.; Not Active: Compounds with an IC50 value less than 30 μM were deemed to be active. Particulars: tetra-acetylated histone H4 peptide, active = IC50 <30 μM. As for the experimental part: (§1) Proteins were cloned and overexpressed with a N-terminal 6×His tag, then purified by nickel affinity followed by size exclusion chromatography. Briefly, E. coli BL21 (DE3) cells were transformed with a recombinant expression vector encoding N-terminally Nickel affinity tagged bromodomains from Brd2, Brd3, Brd4. Cell cultures were incubated at 37° C. with shaking to the appropriate density and induced overnight with IPTG. The supernatant of lysed cells was loaded onto Ni-IDA column for purification. Eluted protein is pooled, concentrated and further purified by size exclusion chromatography. Fractions representing monomeric protein were pooled, concentrated, aliquoted, and frozen at −80° C. for use in subsequent experiments.
(§2) Binding of tetra-acetylated histone H4 and BET bromodomains was confirmed by a Time Resolved Fluorescence Resonance Energy Transfer (TR-FRET) method. N-terminally His-tagged bromodomains (200 nM) and biotinylated tetra-acetylated histone H4 peptide (25-50 nM, Millipore) were incubated in the presence of Europium Cryptate-labeled streptavidin (Cisbio Cat. #610SAKLB) and XL665-labeled monoclonal anti-His antibody (Cisbio Cat. #61HISXLB) in a white 96 well microtiter plate (Greiner). For inhibition assays, serially diluted test compound was added to these reactions in a 0.2% final concentration of DMSO. Final buffer concentrations were 30 mM HEPES pH 7.4, 30 mM NaCl, 0.3 mM CHAPS, 20 mM phosphate pH 7.0, 320 mM KF, 0.08% BSA). After a 2-h incubation at room temperature, the fluorescence by FRET was measured at 665 and 620 nm by a SynergyH4 plate reader (Biotek). Illustrative results with the first bromodomain of Brd4 and the second bromodomain of Brd2 are shown below. The binding inhibitory activity was shown by a decrease in 665 nm fluorescence relative to 620 nm. IC50 values were determined from a dose response curve.

In experiment [2] the target is T2, second bromodomain of Brd2 (BRD2(2)) (Homo sapiens, UniProt P25440).
T2 construct: made in house; host or cells: E. coli BL21 (DE3)
T2 sequence (P25440 344-453 limits assumed): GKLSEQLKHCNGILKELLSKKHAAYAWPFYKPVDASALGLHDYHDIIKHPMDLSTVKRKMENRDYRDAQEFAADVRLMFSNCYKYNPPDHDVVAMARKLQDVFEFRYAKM
The experiment can be described thus: Inhibition of tetra-acetylated histone H4 binding to Brd2 bromodomain 2 (TR-FRET). Also on record: key: Active: Compounds with an IC50 value less than 30 μM were deemed to be active.; Not Active: Compounds with an IC50 value less than 30 μM were deemed to be active. Particulars: tetra-acetylated histone H4 peptide, active = IC50 <30 μM. How it is done:
as §1, §2

Counter-ions that a name gives are not always drawn.

For the molecule `Cc1noc(C)c1-c1ccc(=O)n(Cc2ccc(S(C)(=O)=O)cc2)c1` [Example 145, 5-(3,5-Dimethylisoxazol-4-yl)-1-(4-(methylsulfonyl)benzyl)pyridin-2(1H)-one], the “FRET activity (IC50 <30 μM) BRD4(1)” value in experiment [1] is reported as “Active”. Moreover, the “FRET activity (IC50 <30 μM) BRD2(2)” value in experiment [2] was “Active”.
`COc1ccc(Cn2nc(-c3c(C)noc3C)ccc2=O)cc1` [Example 33, 6-(3,5-Dimethylisoxazol-4-yl)-2-(4-methoxybenzyl)pyridazin-3(2H)-one]: in experiment [1], the “FRET activity (IC50 <30 μM) BRD4(1)” value is “Active”. In addition, in experiment [2], the “FRET activity (IC50 <30 μM) BRD2(2)” value is reported as “Active”.
With `Cc1noc(C)c1-c1ccc(=O)n(Cc2ncccn2)c1` [Example 163, 5-(3,5-Dimethylisoxazol-4-yl)-1-(pyrimidin-2-ylmethyl)pyridin-2(1H)-one], the “FRET activity (IC50 <30 μM) BRD4(1)” value in experiment [1] is given as “Active”. Besides, the “FRET activity (IC50 <30 μM) BRD2(2)” value in experiment [2] is recorded as “Active”.
As for `O=c1ccc(-c2ccnc(O)c2)cn1Cc1ccccc1` [Example 62, 1-Benzyl-2′-hydroxy-[3,4′-bipyridin]-6(1H)-one], the “FRET activity (IC50 <30 μM) BRD4(1)” value in experiment [1] is listed as “Not Active”. Further, the “FRET activity (IC50 <30 μM) BRD2(2)” value in experiment [2] is recorded as “Active”.
As to `Cc1noc(C)c1-c1ccc(=O)n(Cc2ccc3ccccc3c2)n1` [Example 77, 6-(3,5-Dimethylisoxazol-4-yl)-2-(naphthalen-2-ylmethyl)pyridazin-3(2H)-one], the “FRET activity (IC50 <30 μM) BRD4(1)” value in experiment [1] is “Active”. Moreover, the “FRET activity (IC50 <30 μM) BRD2(2)” value in experiment [2] is reported as “Active”.
Regarding `COc1ccc(Oc2ccc(=O)n(Cc3ccccc3)n2)cc1OC` [Example 100, 2-Benzyl-6-(3,4-dimethoxyphenoxy)pyridazin-3(2H)-one], the “FRET activity (IC50 <30 μM) BRD4(1)” value in experiment [1] is “Not Active”. In experiment [2], the “FRET activity (IC50 <30 μM) BRD2(2)” value is “Active”.
Turning to `Cc1noc(C)c1-c1ccc(=O)n(Cc2cccc(OC(F)(F)F)c2)n1` [Example 36, 6-(3,5-Dimethylisoxazol-4-yl)-2-(3-(trifluoromethoxy)benzyl)pyridazin-3(2H)-one], the “FRET activity (IC50 <30 μM) BRD4(1)” value in experiment [1] is “Active”. Moreover, the “FRET activity (IC50 <30 μM) BRD2(2)” value in experiment [2] was “Active”.
`Cc1noc(C)c1-c1ccc(=O)n(C(C)(C)c2ccccc2)c1` [Example 106, 5-(3,5-Dimethylisoxazol-4-yl)-1-(2-phenylpropan-2-yl)pyridin-2(1H)-one]: the “FRET activity (IC50 <30 μM) BRD4(1)” value in experiment [1] is reported as “Active”. The “FRET activity (IC50 <30 μM) BRD2(2)” value in experiment [2] is “Active”.
Regarding `Cc1noc(C)c1-c1ccc(=O)n(Cc2ccccc2)c1Cl` [Example 114, 1-Benzyl-6-chloro-5-(3,5-dimethylisoxazol-4-yl)pyridin-2(1H)-one], in experiment [1], the “FRET activity (IC50 <30 μM) BRD4(1)” value was “Active”. For the same molecule, in experiment [2], the “FRET activity (IC50 <30 μM) BRD2(2)” value is on record as “Active”.
Take `Cc1noc(C)c1-c1ccc(=O)n(Cc2ccc3[nH]cnc3c2)n1` [Example 143, 2-((1H-Benzo[d]imidazol-5-yl)methyl)-6-(3,5-dimethylisoxazol-4-yl)pyridazin-3(2H)-one]: the “FRET activity (IC50 <30 μM) BRD4(1)” value in experiment [1] is listed as “Active”. Further, the “FRET activity (IC50 <30 μM) BRD2(2)” value in experiment [2] is “Active”.
As for `Cc1noc(C)c1-c1ccc(=O)n(Cc2cccc(C(F)(F)F)c2)n1` [Example 31, 6-(3,5-Dimethylisoxazol-4-yl)-2-(3-(trifluoromethyl)benzyl)pyridazin-3(2H)-one], the “FRET activity (IC50 <30 μM) BRD4(1)” value in experiment [1] is “Active”. For the same molecule, the “FRET activity (IC50 <30 μM) BRD2(2)” value in experiment [2] was “Active”.
In the case of `O=c1ccc(-c2cnoc2)cn1Cc1ccccc1` [Example 58, 1-Benzyl-5-(isoxazol-4-yl)pyridin-2(1H)-one], in experiment [1], the “FRET activity (IC50 <30 μM) BRD4(1)” value is “Not Active”. Besides, the “FRET activity (IC50 <30 μM) BRD2(2)” value in experiment [2] is “Active”.
As for `Cc1cc(F)cc(Cn2nc(-c3c(C)noc3C)ccc2=O)c1` [Example 32, 6-(3,5-Dimethylisoxazol-4-yl)-2-(3-fluoro-5-methylbenzyl)pyridazin-3(2H)-one], in experiment [1], the “FRET activity (IC50 <30 μM) BRD4(1)” value is reported as “Not Active”. Moreover, the “FRET activity (IC50 <30 μM) BRD2(2)” value in experiment [2] was “Active”.
Regarding `Cc1noc(C)c1-c1nn(Cc2ccccc2)c(=O)c2ccccc12` [Example 170, 2-Benzyl-4-(3,5-dimethylisoxazol-4-yl)-2H-phthalazin-1-one], the “FRET activity (IC50 <30 μM) BRD4(1)” value in experiment [1] was “Not Active”. For the same molecule, the “FRET activity (IC50 <30 μM) BRD2(2)” value in experiment [2] was “Active”.
As to `Cc1noc(C)c1-c1ccc(=O)n(Cc2c(F)cc(F)cc2F)n1` [Example 92, 6-(3,5-Dimethylisoxazol-4-yl)-2-(2,4,6-trifluorobenzyl)pyridazin-3(2H)-one], in experiment [1], the “FRET activity (IC50 <30 μM) BRD4(1)” value is “Active”. The “FRET activity (IC50 <30 μM) BRD2(2)” value in experiment [2] was “Active”.
Turning to `Cc1noc(C)c1-c1ccc(=O)n(CC2CC2)c1` [Example 48, 1-(Cyclopropylmethyl)-5-(3,5-dimethylisoxazol-4-yl)pyridin-2(1H)-one], in experiment [1], the “FRET activity (IC50 <30 μM) BRD4(1)” value is listed as “Active”. Also, the “FRET activity (IC50 <30 μM) BRD2(2)” value in experiment [2] is “Active”.
For the molecule `Cc1noc(C)c1-c1cc(C)c(=O)n(CC2CC2)n1` [Example 85, 2-(Cyclopropylmethyl)-6-(3,5-dimethylisoxazol-4-yl)-4-methylpyridazin-3(2H)-one], the “FRET activity (IC50 <30 μM) BRD4(1)” value in experiment [1] is listed as “Active”. In addition, the “FRET activity (IC50 <30 μM) BRD2(2)” value in experiment [2] was “Active”.
`Cc1noc(C)c1-c1ccc(=O)n(Cc2ccccc2OC(F)(F)F)c1` [Example 40, 5-(3,5-Dimethylisoxazol-4-yl)-1-(2-(trifluoromethoxy)benzyl)pyridin-2(1H)-one]: the “FRET activity (IC50 <30 μM) BRD4(1)” value in experiment [1] was “Active”. Moreover, the “FRET activity (IC50 <30 μM) BRD2(2)” value in experiment [2] is reported as “Active”.
In the case of `Cc1noc(C)c1-c1ccc(=O)n(Cc2ccccc2)c1C` [Example 115, 1-Benzyl-5-(3,5-dimethylisoxazol-4-yl)-6-methylpyridin-2(1H)-one], the “FRET activity (IC50 <30 μM) BRD4(1)” value in experiment [1] is listed as “Active”. For the same molecule, the “FRET activity (IC50 <30 μM) BRD2(2)” value in experiment [2] is reported as “Active”.
With `Cc1n[nH]c(C)c1-c1ccc(=O)n(Cc2ccccc2)n1` [Example 86, 2-Benzyl-6-(3,5-dimethyl-1H-pyrazol-4-yl)pyridazin-3(2H)-one], the “FRET activity (IC50 <30 μM) BRD4(1)” value in experiment [1] is “Active”. The “FRET activity (IC50 <30 μM) BRD2(2)” value in experiment [2] is given as “Active”.
With `Cc1noc(C)c1-c1ccc(=O)n(C(=O)c2ccc(Cl)cc2)c1` [Example 69, 1-(4-Chlorobenzoyl)-5-(3,5-dimethylisoxazol-4-yl)pyridin-2(1H)-one], the “FRET activity (IC50 <30 μM) BRD4(1)” value in experiment [1] is given as “Active”. Also, the “FRET activity (IC50 <30 μM) BRD2(2)” value in experiment [2] is “Active”.
In the case of `Cc1[nH]cnc1-c1ccc(=O)n(Cc2ccccc2)c1` [Example 81, 1-Benzyl-5-(5-methyl-1H-imidazol-4-yl)pyridin-2(1H)-one], the “FRET activity (IC50 <30 μM) BRD4(1)” value in experiment [1] was “Not Active”. In experiment [2], the “FRET activity (IC50 <30 μM) BRD2(2)” value is “Active”.
The matching figures for `Cc1oncc1-c1cc(C)c(=O)n(Cc2ccccc2)n1` [Example 20, 2-Benzyl-4-methyl-6-(5-methylisoxazol-4-yl)pyridazin-3(2H)-one]: “Not Active” and “Active”.
`Cc1noc(C)c1CNc1ccc(=O)n(Cc2ccccc2)n1` [Example 201, 2-Benzyl-6-(((3,5-dimethylisoxazol-4-yl)methyl)amino)pyridazin-3(2H)-one]: the “FRET activity (IC50 <30 μM) BRD4(1)” value in experiment [1] is on record as “Not Active”.
As for `Cc1noc(C)c1-c1cc(NS(C)(=O)=O)c(=O)n(Cc2ccccc2)c1` [Example 200, N-(1-Benzyl-5-(3,5-dimethylisoxazol-4-yl)-2-oxo-1,2-dihydropyridin-3-yl)methanesulfonamide], the “FRET activity (IC50 <30 μM) BRD4(1)” value in experiment [1] is reported as “Not Active”.
Still for that read-out and setting: with `Cc1noc(C)c1-c1cc(CN)c(=O)n(Cc2ccccc2)c1` [Example 266, 3-(Aminomethyl)-1-benzyl-5-(3,5-dimethylisoxazol-4-yl)pyridin-2(1H)-one] the entry was “Not Active”; with `Cc1noc(C)c1-c1cc(N)c(=O)n(C(C)c2ccc(C#N)cc2)c1` (stereo not shown) [Example 269, 4-(1-(3-amino-5-(3,5-dimethylisoxazol-4-yl)-2-oxopyridin-1(2H)-yl)ethyl)benzonitrile], “Not Active”.
Turning to `Cc1noc(C)c1-c1cc(N2CCNCC2)c(=O)n(Cc2ccccc2)c1` [Example 161, 1-Benzyl-5-(3,5-dimethylisoxazol-4-yl)-3-(piperazin-1-yl)pyridin-2(1H)-one Hydrochloride], the “FRET activity (IC50 <30 μM) BRD4(1)” value in experiment [1] is given as “Not Active”.
For `Cc1noc(C)c1-c1cc(NC2CCNC2)c(=O)n(Cc2ccccc2)c1` (stereo not shown) [Example 239, 1-benzyl-5-(3,5-dimethylisoxazol-4-yl)-3-(pyrrolidin-3-ylamino)pyridin-2(1H)-one], in experiment [1], the “FRET activity (IC50 <30 μM) BRD4(1)” value is on record as “Active”.
